Experimental data reported in patent US20260103465A1, “GLYCOGEN SYNTHASE KINASE 3 INHIBITORS AND USES THEREOF” (The Broad Institute, Inc., priority 2023, published 2026).
Read-outs that look alike come from different tables or passages of the source.

Columns and labels:
[1] = target: T1, GSK3b (GST-full length GSK3b) (Homo sapiens, UniProt P49841); assay: GSK3b TR-FRET kinase inhibition assay; assay type: biochemical
T1 construct: GST-full length GSK3b: [SignalChem G08-9G]; purchased SignalChem G08-9G
T1 sequence (P49841 whole entry): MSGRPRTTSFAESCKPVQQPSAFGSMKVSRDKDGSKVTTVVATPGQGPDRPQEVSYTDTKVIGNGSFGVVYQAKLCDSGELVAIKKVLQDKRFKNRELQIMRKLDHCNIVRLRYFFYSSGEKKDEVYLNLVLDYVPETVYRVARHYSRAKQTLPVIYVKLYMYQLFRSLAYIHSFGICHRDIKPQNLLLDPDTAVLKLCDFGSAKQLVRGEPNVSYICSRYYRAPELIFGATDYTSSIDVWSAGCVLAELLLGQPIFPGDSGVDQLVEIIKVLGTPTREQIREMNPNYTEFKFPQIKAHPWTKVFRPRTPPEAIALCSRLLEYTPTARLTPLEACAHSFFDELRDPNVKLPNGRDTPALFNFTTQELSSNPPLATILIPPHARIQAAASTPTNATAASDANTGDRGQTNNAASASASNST
Procedure, shortened: (§1)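 GST-tagged full-length human kinase (1 nM), pre-incubated 30 min with compound, then reacted 100 min at ambient temperature at pH 7.5 with 200 nM biotinylated phospho-S645 glycogen synthase 631–650 peptide and ATP at 2 μM–1 mM. After EDTA quench, Tb-pSer641 antibody/streptavidin-d2 TR-FRET 665/615 ratio fitted for IC50.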

[2] = target: T2, GSK3a (GST-full length GSK3a) (Homo sapiens, UniProt P49840); assay: GSK3a TR-FRET kinase inhibition assay; assay type: biochemical
T2 construct: GST-full length GSK3a [SignalChem G08-10G]; purchased SignalChem G08-10G
T2 sequence (P49840 whole entry): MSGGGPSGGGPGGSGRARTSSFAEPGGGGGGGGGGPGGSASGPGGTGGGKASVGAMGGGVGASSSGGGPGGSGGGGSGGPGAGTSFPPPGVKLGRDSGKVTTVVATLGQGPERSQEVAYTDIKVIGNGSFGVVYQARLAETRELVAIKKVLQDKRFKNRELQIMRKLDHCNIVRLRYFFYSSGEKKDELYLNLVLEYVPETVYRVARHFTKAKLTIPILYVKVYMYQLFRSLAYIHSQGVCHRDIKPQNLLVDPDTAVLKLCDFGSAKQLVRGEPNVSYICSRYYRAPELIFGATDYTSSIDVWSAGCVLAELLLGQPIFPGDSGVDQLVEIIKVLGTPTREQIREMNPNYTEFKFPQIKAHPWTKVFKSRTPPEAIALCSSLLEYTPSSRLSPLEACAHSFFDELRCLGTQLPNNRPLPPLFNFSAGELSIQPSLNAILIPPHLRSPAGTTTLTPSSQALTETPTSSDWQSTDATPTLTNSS
Procedure, shortened: as §1

[3] = tested on: MDR1-MDCK cell monolayers; assay: MDR1/MDCK permeability assay; assay type: in vitro ADME; conditions: for MDCK Permeability (MDR1-MDCK); Mean; Papp(A-B) (10^−6 cm/s): A to B; for MDCK Permeability (MDR1-MDCK); Mean; Papp(B-A) (10^−6 cm/s): B to A; for MDCK Permeability (MDR1-MDCK); Mean; P. Ratio(B-A/A-B) Efflux Ratio / MIDCK Permeability (MDR1-MDCK); Mean; P. Ratio(B-A/A-B) Efflux Ratio: Papp B-A/A-B
Description: The MDR1/MDCK assay is run at WuXi and Absorption Systems. This assay is used to determine the blood-brain barrier (BBB) penetration potential of a test compound using MDR1-MDCK cell monolayers. Catalog number EA203.
• The percent recovery of the test compound from the Transwell® wells containing MDR1-MDCK cell monolayers • The apparent permeability (Papp) in both directions • The efflux ratio (Papp B to A)/(Papp A to B) • The blood-brain barrier penetration potential classification: • High when • Papp A to B≥3.0×10^−6 cm/s, and efflux<3.0 • Moderate when • Papp A to B≥3.0×10^−6 cm/s, and 10>efflux≥3.0 • Low when either • Papp A to B≥3.0×10^−6 cm/s, and […], or when • Papp A to B<[…].
• Test compound at 5 μM in HBSSg with maximum DMSO concentration not greater than 1%.
• Confluent monolayers of MDR1-MDCK cells, 7 to 11 days old.
• Receiver well with 1% BSA in modified Hanks buffer (HBSSg) • Apical and basolateral side at pH 7.4 • Dose two monolayers in each direction (N=2) • Dose apical side for (A to B) assessment • Dose basolateral side for (B to A) assessment • Sample both apical and basolateral sides at 120 minutes • Determine the concentrations of test compound using a generic LC-MS/MS method with a minimum 4 point calibration curve.
• The quality of the cell monolayer batch is verified using control compounds before monolayers are released for use • The quality of each monolayer used in the assay is verified by a TEER measurement and by calculating the Papp for a control compound.

[4] = Human liver microsomal stability; assay type: in vitro ADME; conditions: human liver microsomes
Experimental: Stability of compound (5 μL of a 10 mM DMSO solution) in human liver microsomes was tested in duplicate by incubating compound at 1 μM for 60 minutes at 37° C. Compound level at 60 minutes was compared to level at 0 minutes, and percent remaining was calculated. Order by selecting Microsomal Stability in Prometheus, checking boxes for desired species. Assay Controls: microsomes with NADPH without compound-matrix interference. Microsomes plus compound without NADPH—non-enzymatic instability.

[5] = 2 μM ATP, read-out: GSK3β TR-FRET 2 μM ATP GMean IC50
[6] = 1 mM ATP, Table 4, read-out: GSK3β TR-FRET 1 mM ATP GMean IC50
[7] = 4 μM ATP, read-out: GSK3α TR-FRET 4 μM ATP GMean IC50
[8] = 1 mM ATP, Table 4, read-out: GSK3α TR-FRET 1 mM ATP GMean IC50
[9] = 1 mM ATP, Table 3, read-out: GSK3b TR-FRET 1 mM ATP Average IC50
[10] = 1 mM ATP, Table 3, read-out: GSK3a TR-FRET 1 mM ATP Average IC50
[11] = 10 μM ATP, read-out: GSK3b 10 μM ATP Average IC50
[12] = 100 μM ATP, read-out: GSK3b 100 μM ATP Average IC50
[13] = 10 μM ATP, read-out: GSK3a 10 μM ATP Average IC50
[14] = 100 μM ATP, read-out: GSK3a 100 μM ATP Average IC50

Structure (SMILES)	IC50 [1, 5] [µM]	IC50 [1, 6] [µM]	IC50 [2, 7] [µM]	IC50 [2, 8] [µM]	MDCK Permeability (MDR1-MDCK); Mean; Papp(A-B) (10^−6 cm/s) ([3]; Table 4)	MDCK Permeability (MDR1-MDCK); Mean; Papp(B-A) (10^−6 cm/s) ([3]; Table 4)	MDCK Permeability (MDR1-MDCK); Mean; P. Ratio(B-A/A-B) Efflux Ratio ([3]; Table 4)	Microsome Stability (Human) (DMPK_BIIB); Mean; in vitro t1/2 ([4]; Table 4) [min]	IC50 [1, 9] [µM]	IC50 [2, 10] [µM]	MDCK Permeability (MDR1-MDCK); Mean; Papp(A-B) (10^−6 cm/s) ([3]; Table 3)	MDCK Permeability (MDR1-MDCK); Mean; Papp(B-A) (10^−6 cm/s) ([3]; Table 3)	MIDCK Permeability (MDR1-MDCK); Mean; P. Ratio(B-A/A-B) Efflux Ratio ([3]; Table 3)	Microsome Stability (Human) (DMPK_BIIB); Mean; in vitro t1/2 ([4]; Table 3) [min]	IC50 [1, 11] [µM]	IC50 [1, 12] [µM]	IC50 [2, 13] [µM]	IC50 [2, 14] [µM]
CCC1(c2cccc(-c3ccnc4c3CCCC4)c2)C2=C(CC(C)(C)CC2=O)Nc2ncc(F)cc21 (single isomer, unassigned) [Compound 165B]	≤ 0.1	0.1 to 1	≤ 0.1	0.1 to 1	4.4 10^−6 cm/s	24 10^−6 cm/s	5.5	4.7										
CCC1(c2ccccc2)C2=C(CC3(CCC3)CC2=O)Nc2ncccc21 (single isomer, unassigned) [Compound 110A]					22 10^−6 cm/s	31 10^−6 cm/s	1.4	5.4	5 to 20	1 to 5								
CCC1(c2cccc(-c3ccncc3)c2)C2=C(CC(C)(C)CC2=O)Nc2ncccc21 (single isomer, unassigned) [Compound 1017A]	0.1 to 1		≤ 0.1		6.9 10^−6 cm/s	32 10^−6 cm/s	4.6	6.2										
CCC1(c2cccc(-c3cn(C)nc3C)c2)C2=C(CC(C)(C)CC2=O)Nc2ncccc21 (single isomer, unassigned) [Compound 1023A]	≤ 0.1	1 to 5	≤ 0.1	0.1 to 1	3.0 10^−6 cm/s	27 10^−6 cm/s	9.0	3.2										
CCC1(c2cccc(-c3cncn3C(C)C)c2)C2=C(CC(C)(C)CC2=O)Nc2ncc(F)cc21 (single isomer, unassigned) [Compound 1038B]	0.1 to 1		≤ 0.1		0.70 10^−6 cm/s	34 10^−6 cm/s	49	13										
CC(C)(C)Cc1cnccc1-c1cccc(C2(C)C3=C(CC(C)(C)CC3=O)Nc3ncc(F)cc32)c1 (single isomer, unassigned) [Compound 168A]									0.1 to 1	0.1 to 1	2.5 10^−6 cm/s	2.2 10^−6 cm/s	0.90	33				
CCC1(c2cccc(-c3ccnn3C)c2)C2=C(CC(C)(C)CC2=O)Nc2ncccc21 (single isomer, unassigned) [Compound 1019A]	≤ 0.1	1 to 5	≤ 0.1	0.1 to 1	4.2 10^−6 cm/s	39 10^−6 cm/s	9.5	4.8										
CCC1(c2cccc(-c3c(F)cncc3OC)c2)C2=C(CC(C)(C)CC2=O)Nc2ncccc21 (single isomer, unassigned) [Compound 154B]	≤ 0.1	0.1 to 1	≤ 0.1	≤ 0.1	3.1 10^−6 cm/s	25 10^−6 cm/s	8.3	6.6	5 to 20	5 to 20								
CCC1(c2ccccc2)C2=C(CC3(CCC3)CC2=O)Nc2ncc(F)cc21 (single isomer, unassigned) [Compound 1008A]	≤ 0.1	1 to 5	≤ 0.1	0.1 to 1	22 10^−6 cm/s	26 10^−6 cm/s	1.2	19										
CC(C)(C)Cc1ccnc2c1C(C)(c1ccccc1)C1=C(CC(C)(C)CC1=O)N2 (single isomer, unassigned) [Compound 130A]									5 to 20	5 to 20	1.4 10^−6 cm/s	0.65 10^−6 cm/s	0.48	0.55	≤ 0.1	0.1 to 1	≤ 0.1	0.1 to 1
CC1(C)CC(=O)C2=C(C1)Nc1ncccc1C2(C)c1ccccc1 (single isomer, unassigned) [Compound 101A]									1 to 5	1 to 5	30 10^−6 cm/s	22 10^−6 cm/s	0.72	37	≤ 0.1	0.1 to 1	≤ 0.1	0.1 to 1
CCC1(c2ccccc2)C2=C(CC(C)(C)CC2=O)Nc2ncccc21 (single isomer, unassigned) [Compound 102A]									1 to 5	1 to 5	22 10^−6 cm/s	19 10^−6 cm/s	0.87	14	≤ 0.1	0.1 to 1	≤ 0.1	0.1 to 1
CC1(C)CC(=O)C2=C(C1)Nc1nccc(C(F)(F)F)c1C2(C)c1ccccc1 (single isomer, unassigned) [Compound 127A]									0.1 to 1	0.1 to 1	17 10^−6 cm/s	8.7 10^−6 cm/s	0.50	8.3				
